Patent US20040063725A1, “Novel n(phenylsulphonyl)glycine derivatives and their therapeutic use” (priority 2001, published 2004)
Structures can show the parent of a compound that is named as a salt.

Test system: formaldehyde-induced pain
Assay: formaldehyde-induced pain test in the mouse (formalin test)
Assay type: in vivo
Conditions: formaldehyde 0.92% in paw, licking time 15 to 30 min
Procedure: The compounds of the present invention were evaluated for their analgesic property in the formaldehyde-induced pain test in the mouse (Shibata, M., Ohkubo, T., Takahashi, H. & R. Inoki. Modified formalin test: characteristic biphasic pain response. Pain, 38. 347-352). In summary, an administration of formaldehyde (0.92% in physiological serum) is made in the front paw and the licking time, which reflects the intensity of the pain, is recorded from 0 to 5 min (1st phase) and from 15 to 30 min (2nd phase) after the injection. The percentage inhibition of the second phase of licking induced by the formaldehyde is given, for some compounds according to the invention, in the following Table: […]

## N-[2-[(4-aminobutyl)(4-piperidinylmethyl)amino]-2-oxoethyl]-2-[[(2,4-dichloro-3-methylphenyl)sulphonyl](2-phenylethyl)amino]acetamide, Bis Trifluoroacetate [Example 25]
30 mg/kg s.c.
  % inhibition of the 2nd licking phase: 87%

## Cc1c(Cl)ccc(S(=O)(=O)N(CCc2ccccc2)CC(=O)NCC(=O)N(CCCCN2CCCC2)CCCc2cnc[nH]2)c1Cl [Example 82, 2-[[(2,4-dichloro-3-methylphenyl)sulphonyl](2-phenylethyl)amino]-N-[2-[[3-(1H-imidazol-5-yl)propyl][4-(1-pyrrolidinyl)butyl]amino]-2-oxo-ethyl]acetamide, Dihydrochloride]
10 mg/kg i.p.
  % inhibition of the 2nd licking phase: 63%

## Cc1c(Cl)ccc(S(=O)(=O)N(CCc2ccccc2)CC(=O)NCC(=O)N(CCCN(C)C)Cc2ccc(C3=NCCN3)cc2)c1Cl [Example 35, 2-[[(2,4-dichloro-3-methylphenyl)sulphonyl](2-phenylethyl)amino]-N-[2-[[[4-(4,5-dihydro-1H-imidazol-2-yl)phenyl]methyl][3-(dimethylamino)propyl]amino]-2-oxoethyl]acetamide, Dihydrochloride]
10 mg/kg s.c.
  % inhibition of the 2nd licking phase: 92%

## N-[2-[[[4-(aminoiminomethyl)phenyl]methyl][3-(dimethylamin)propyl]amino]-2-oxoethyl]-2-[[(2,4-dichloro-3-methylphenyl)sulphonyl](2-phenylethyl)amino]acetamide, Dihydrochloride [Example 23]
30 mg/kg s.c.
  % inhibition of the 2nd licking phase: 98%

## Cc1c(Cl)ccc(S(=O)(=O)N(CCc2ccccc2)CC(=O)NCC(=O)N(CCC2CCNCC2)Cc2ccc(C(=N)N)cc2)c1Cl.O=C(O)C(F)(F)F.O=C(O)C(F)(F)F [Example 24, N-[2-[[[4-(aminoiminomethyl)phenyl]methyl](4-piperidinylethyl)amino]-2-oxoethyl]-2-[[(2,4-dichloro-3-methylphenyl)sulphonyl](2-phenylethyl)-amino]acetamide, bis Trifluoroacetate]
10 mg/kg s.c.
  % inhibition of the 2nd licking phase: 76%
